Results on 9 compounds are retold here after US20090326029A1, “NON-CYCLIC SUBSTITUTED BENZIMIDAZOLE THIOPHENE BENZYL ETHER COMPOUNDS” (priority 2006, published 2009).

Structures can show the parent of a compound that is named as a salt.

Assay [1] has as its target T1, PLK1 kinase domain (Homo sapiens, UniProt P53350).
T1 construct: 6xHis (leader MKKGHHHHHHD) (N); made in house; host or cells: baculovirus infected T. ni cells
Nature of the assay: Assay for Inhibition of PLK1 (SPA kinase assay). It counts as biochemical. The conditions noted are these: 2 nM PLK1 kinase domain, 1 μM ATP, 1 μM substrate peptide, 22° C.; read-out: PLK1 pIC50 (converted). The method, then:
6× N-terminal His-tagged PLK kinase domain (amino acids 21-346 preceded by MKKGHHHHHHD) SEQ ID: No. 1. was prepared from baculovirus infected T. ni cells under polyhedrin promoter control. All procedures were performed at 4° C. Cells were lysed in 50 mM HEPES, 200 mM NaCl, 50 mM imidazole, 5% glycerol; pH 7.5. The homogenate was centrifuged at 14K rpm in a SLA-1500 rotor for 1 hr and the supernatant filtered through a 1.2 micron filter. The supernatant was loaded onto a Nickel chelating Sepharose (Amersham Pharmacia) column and washed with lysis buffer. Protein was eluted using 20%, 30% and 100% buffer B steps where buffer B was 50 mM HEPES, 200 mM NaCl, 300 mM imidazole, 5% glycerol; pH 7.5. Fractions containing PLK were determined by SDS-PAGE. Fractions containing PLK were diluted five-fold with 50 mM HEPES, 1 mM DTT, 5% glycerol; pH 7.5, then loaded on an SP Sepharose (Amersham Pharmacia) column. After washing the column with 50 mM HEPES, 1 mM DTT, 5% glycerol; pH 7.5, PLK was step eluted with 50 mM HEPES, 1 mM DTT, 500 mM NaCl; 5% glycerol; pH 7.5. PLK was concentrated using a 10 kDa molecular weight cutoff membrane and then loaded onto a Superdex 200 gel filtration (Amersham Pharmacia) column equilibrated in 25 mM HEPES, 1 mM DTT, 500 mM NaCl, 5% glycerol; pH 7.5. Fractions containing PLK were determined by SDS-PAGE. PLK was pooled, aliquoted and stored at −80° C. Samples were quality controlled using mass spectrometry, N-terminal sequencing and amino acid analysis.
All measurements were obtained under conditions where signal production increased linearly with time and enzyme. Test compounds were added to white 384-well assay plates (0.1 μL for 10 μL and some 20 μL assays, 1 μL for some 20 μL assays) at variable known concentrations in 100% DMSO. DMSO (I-5% final, as appropriate) and EDTA (65 mM in reaction) were used as controls. Reaction Mix was prepared as follows at 22° C.: • 25 mM HEPES, pH 7.2 • 15 mM MgCl2 • 1 μM ATP • 0.05 μCi/well ^33P-γ ATP (10 Ci/mMol) • 1 μM substrate peptide (Biotin-Ahx-SFNDTLDFD) SEQ ID: No. 2. • 0.15 mg/mL BSA • 1 mM DTT • 2 nM PLK1 kinase domain (added last)
Reaction Mix (10 or 20 μL) was quickly added to each well immediately following addition of enzyme via automated liquid handlers and incubated 1-1.5 h at 22° C. The 20 μL enzymatic reactions were stopped with 50 μL of stop mix (50 mM EDTA, 4.0 mg/mL Streptavidin SPA beads in Standard Dulbecco's PBS (without Mg^2+ and Ca^2+), 50 μM ATP) per well. The 10 μL reactions were stopped with 10 μL of stop mix (50 mM EDTA, 3.0 mg/mL Streptavidin-coupled SPA Imaging Beads (“LeadSeeker”) in Standard Dulbecco's PBS (without Mg^2+ and Ca^2+), 50 μM ATP) per well. Plates were sealed with clear plastic seals, spun at 500×g for 1 min or settled overnight, and counted in Packard TopCount for 30 seconds/well (regular SPA) or imaged using a Viewlux imager (LeadSeeker SPA). Signal above background (EDTA controls) was converted to percent inhibition relative to that obtained in control (DMSO-only) wells.

Assay [2] relates to HCT116. Nature of the assay: Inhibition of Cell Proliferation (methylene blue or CellTiter-Glo). It counts as cell-based. The conditions noted are these: Homo sapiens, HCT-116; HCT116 cell growth, seventy two hours post-treatment, 10% fetal bovine serum. The method, then: Exponentially growing cell lines of different tumor origins, cultured in appropriate media containing 10% fetal bovine serum at 37° C. in a 5% CO2 incubator were plated at low density (less than 2000 cells/well) in 96-well plates. Twenty four hours post-plating, cells were treated with different concentrations of test compounds ranging from 10 uM to 0.04 nM. Several wells were left untreated as a control. Seventy two hours post-treatment, cell numbers were determined using different techniques; 100 μl per well of methylene blue (Sigma M9140) (0.5% in 50:50 Ethanol:water), or 50-100 ul per well of CellTiter-Glo (Promega #G7573). For methylene blue staining, stain was incubated at room temperature for 30 minutes before plates were rinsed and dye solubilized in 1% N-lauroyl sarcosine, sodium salt, (Sigma L5125, in PBS). Plates were read on a microplate reader, measuring the OD at 620 nm. For CellTiter-Glo, plates were incubated at room temperature for 15 minutes and the chemiluminescent signal was read on the Victor V or Envison 2100 reader.
Percent inhibition of cell growth was expressed as percent proliferation relative to 100% proliferation (control). Concentration of test compound that inhibited 50% of cell growth (IC50) was determined by 4 parameter fit of data using XLfit, (value of no cell control was substracted from all samples for background). The data are shown in Table 1 and Table 2 below and represent a compilation of several different experiments each performed using the general parameters outlined above, although minor variations may have been employed in some instances. In Table 1 and Table 2, +=IC50>1+M; ++=IC50 0.5-1 μM: +++=IC50<0.5 μM.
(In ATP-based viability assays light output follows the ATP content of the culture.)

T1 sequence (P53350 21-346): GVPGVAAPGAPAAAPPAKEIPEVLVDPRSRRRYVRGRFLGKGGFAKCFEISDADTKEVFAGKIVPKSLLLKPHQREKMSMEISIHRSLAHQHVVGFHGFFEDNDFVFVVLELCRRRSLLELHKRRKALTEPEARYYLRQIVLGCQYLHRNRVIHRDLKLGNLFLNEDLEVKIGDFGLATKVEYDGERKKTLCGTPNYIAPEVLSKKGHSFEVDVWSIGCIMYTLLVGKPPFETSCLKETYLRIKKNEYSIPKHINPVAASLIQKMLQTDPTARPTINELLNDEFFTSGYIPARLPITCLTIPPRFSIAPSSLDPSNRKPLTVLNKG

Regarding `COc1cc2ncn(-c3cc(O[C@H](C)c4cc(C(=O)NCCN(C)C)ccc4Cl)c(C(N)=O)s3)c2cc1OC` [Example 1, 5-[5,6-Bis(methyloxy)-1H-benzimidazol-1-yl]-3-({(1R)-1-[2-chloro-5-({[2-(dimethylamino)ethyl]amino}carbonyl)phenyl]ethyl}oxy)-2-thiophenecarboxamide formate], the IC50 in assay [1] is 100 to 1000 nM.
`COc1cc2ncn(-c3cc(O[C@H](C)c4cccc(NCCO)c4Cl)c(C(N)=O)s3)c2cc1OC` [Example 2, 5-[5,6-Bis(methyloxy)-1H-benzimidazol-1-yl]-3-[((1R)-1-{2-chloro-3-[(2-hydroxyethyl)amino]phenyl}ethyl)oxy]-2-thiophenecarboxamide] had an IC50 in assay [2] of under 500 nM.
With `COc1cc2ncn(-c3cc(O[C@H](C)c4cccc(OCCN)c4Cl)c(C(N)=O)s3)c2cc1OC` [Example 3, 3-[((1R)-1-{3-[(2-aminoethyl)oxy]-2-chlorophenyl}ethyl)oxy]-5-[5,6-bis(methyloxy)-1H-benzimidazol-1-yl]-2-thiophenecarboxamide], the values for the IC50 in assay [1] and in assay [2] were under 100 nM and under 500 nM, respectively.
On to `C[C@@H](Oc1cc(-n2cnc3ccccc32)sc1C(N)=O)c1cccc(OCCN)c1Cl` [Example 4, 3-[((1R)-1-{3-[(2-Aminoethyl)oxy]-2-chlorophenyl}ethyl)oxy]-5-(1H-benzimidazol-1-yl)-2-thiophenecarboxamide], for which the figures for the IC50 in assay [1] and in assay [2] were under 100 nM and under 500 nM, respectively.
For the compound `C[C@@H](Oc1cc(-n2cnc3cc(-c4cnn(C)c4)ccc32)sc1C(N)=O)c1cccc(OCCCO)c1Cl` [Example 5], the IC50 in assay [1] is under 100 nM; in assay [2], under 500 nM.
With `C[C@@H](Oc1cc(-n2cnc3cc(-c4cnn(C)c4)ccc32)sc1C(N)=O)c1cccc(OCCO)c1Cl` [Example 6, 3-[((1R)-1-{2-chloro-3-[(2-hydroxyethyl)oxy]phenyl}ethyl)oxy]-5-[5-(1-methyl-1H-pyrazol-4-yl)-1H-benzimidazol-1-yl]-2-thiophenecarboxamide], the figures for the IC50 in assay [1] and in assay [2] were under 100 nM and under 500 nM, respectively.
Take `C[C@@H](Oc1cc(-n2cnc3cc(-c4cnn(C)c4)ccc32)sc1C(N)=O)c1cccc(OCCN)c1Cl` [Example 7, 3-[((1R)-1-{3-[(2-aminoethyl)oxy]-2-chlorophenyl}ethyl)oxy]-5-[5-(1-methyl-1H-pyrazol-4-yl)-1H-benzimidazol-1-yl]-2-thiophenecarboxamide hydrochloride]: the IC50 in assay [1] is under 100 nM; in assay [2] it was under 500 nM.
Consider `C[C@@H](Oc1cc(-n2cnc3cc(-c4cnn(C)c4)ccc32)sc1C(N)=O)c1cccc(OCCN(C)C)c1Cl` [Example 8, 3-{[(1R)-1-(2-chloro-3-{[2-(dimethylamino)ethyl]oxy}phenyl)ethyl]oxy}-5-[5-(1-methyl-1H-pyrazol-4-yl)-1H-benzimidazol-1-yl]-2-thiophenecarboxamide], for which the IC50 in assay [1] is under 100 nM; in assay [2] it was under 500 nM.
For `C[C@@H](Oc1cc(-n2cnc3cc(-c4cnn(C)c4)ccc32)sc1C(N)=O)c1cccc(OCCCN(C)C)c1Cl` [Example 9, 3-{[(1R)-1-(2-chloro-3-{[3-(dimethylamino)propyl]oxy}phenyl)ethyl]oxy}-5-[5-(1-methyl-1H-pyrazol-4-yl)-1H-benzimidazol-1-yl]-2-thiophenecarboxamide] the same measures were under 100 nM and under 500 nM.
